# Target: T1, human NPY Y5 receptor (Homo sapiens, UniProt Q15761)
# T1 construct: expressed in transfected cells; host or cells: COS-7, CHO and LM(tk-) cells; vectors pcDNA3, pRc/RSV, pCI-neo; membrane preparation
# T1 sequence (Q15761 1-445): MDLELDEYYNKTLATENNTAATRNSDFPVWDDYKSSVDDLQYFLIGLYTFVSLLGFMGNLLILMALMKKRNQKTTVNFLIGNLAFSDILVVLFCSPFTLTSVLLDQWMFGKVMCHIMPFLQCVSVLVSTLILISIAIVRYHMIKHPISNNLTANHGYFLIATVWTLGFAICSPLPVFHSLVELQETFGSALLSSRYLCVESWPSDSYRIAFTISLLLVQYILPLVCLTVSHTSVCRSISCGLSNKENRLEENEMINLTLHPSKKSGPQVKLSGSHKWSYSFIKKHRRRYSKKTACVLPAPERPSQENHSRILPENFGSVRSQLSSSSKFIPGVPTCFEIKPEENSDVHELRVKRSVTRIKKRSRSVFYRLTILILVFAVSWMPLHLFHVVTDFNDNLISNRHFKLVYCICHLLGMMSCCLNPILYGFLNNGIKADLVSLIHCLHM
# Assay: NPY binding inhibition test
# Conditions: [125I]peptideYY binding to membrane sample from cells expressing NPY Y5 receptor, 25° C., 2 hours; read-out: NPY receptors binding inhibition IC50
# Description: Pharmacological Test (NPY Binding Inhibition Test)
# A sequence coding for human NPY Y5 receptor (c.f. International patent publication number W096/16542) was cloned into expression vectors pcDNA3, pRc/RSV (made by Invitrogen Inc.) and pCI-neo (made by Promega Inc.). The expression vectors thus obtained were transfected to host cells COS-7, CHO and LM(tk-) (American Type Culture Collection) by cationic lipid method (Proceedings of the National Academy of Sciences of the United States of America, vol. 84: p. 7413(1987)) to give NPY Y5 receptor expression cells.
# A membrane sample prepared from the cells which expressed NPY Y5 receptor was incubated together with a test compound and [^125I]peptideYY (made by NEN) (20,000 cpm) in an assay buffer (25 mM Tris buffer, pH 7.4, containing 10 mM magnesium chloride, 1 mM phenylmethylsulfonyl fluoride, 0.1% bacitracin and 0.5% bovine serum albumin) at 25° C. for 2 hours, then filtered through a glass filter GF/C and washed with 5 mM Tris buffer (pH7.4) containing 0.3% BSA. The radioactivity of the cake on the glass filter was measured. Non-specific binding was measured in the presence of 1 μM peptide YY, and 50% Inhibitory Concentration (IC50) of the test compound against specific peptideYY binding was determined (Endocrinology, vol. 131: p. 2090(1992)).
row,SMILES,IC50 [nM]
1,"CS(=O)(=O)N1CC2(CCC(C(=O)NC(Cc3ccncc3)C(=O)NCc3ccccc3)CC2)c2ccccc21 (stereo not drawn) [Example 46, Trans-N-[1-benzylcarbamoyl-2-(4-pyridyl)ethyl]-1-methylsulfonylspiro[indoline-3,1′-cyclohexane]-4′-carboxamide]",2
2,O=C1OC2(CCC(C(=O)NC(CNCc3ccccc3)Cc3ccccc3)CC2)c2ccccc21 (centres unmarked) [Example 32],1.7
3,"CS(=O)(=O)N1CC2(CCC(C(=O)NC(CNCc3ccccc3)Cc3ccccc3)CC2)c2ccccc21 [Example 45, Trans-N-[(S)-1-benzyl-2-(benzylamino)ethyl]-1-methylsulfonylspiro[indoline-3,1′-cyclohexane]-4′-carboxamide]",0.69
4,"O=C1OC2(CCC(C(=O)NC3CCC(c4ccccc4)CC3)CC2)c2ccccc21 (stereo not drawn) [Example 1, trans-3′-oxo-N-(trans-4-phenylcyclohexyl)-spiro[cyclohexane-1,1′(3′H)-isobenzofuran]-4-carboxamide]",2.5
5,"O=C1OC2(CCC(C(=O)NC3CCN(c4ccccc4F)CC3)CC2)c2ccccc21 (stereo not drawn) [Example 5, Trans-N-[1-(2-fluorophenyl)-4-piperidyl]-3′-oxo-spiro[cyclohexane-1,1′(3′H)-isobenzofuran]-4-carboxamide]",1.7
6,"O=C1OC2(CCC(C(=O)NC3CCC(c4cccc(F)c4)CC3)CC2)c2ncccc21 (stereo not drawn) [Example 27, Trans-N-[trans-4-(3-fluorophenyl)cyclohexyl]-3-oxospiro[7-azaisobenzofuran-1(3H),1′-cyclohexane]-4′-carboxamide]",3.6
7,"CS(=O)(=O)N1CC2(CCC(C(=O)NC3CCN(c4ccccc4)C3)CC2)c2ccccc21 [Example 41, Trans-1-methanesulfonyl-N-[(3S)-1-phenyl-3-pyrrolidinyl]spiro[indoline-3,1′-cyclohexane]-4′-carboxamide]",1.2
8,"CS(=O)(=O)N1CC2(CCC(C(=O)NC3CCN(c4cccc(F)c4)CC3)CC2)c2ccccc21 (stereo not drawn) [Example 36, Trans-N-[1-(3-fluorophenyl)-4-piperidyl]-1-methanesulfonyl-spiro[indoline-3,1′-cyclohexane]-4′-carboxamide]",0.8

# — US7205417B2, “Spiro compounds” (Banyu Pharmaceutical Co., Ltd., priority 2001, dated 2007)
